Assay results: the NIST ThermoML archive (doi:10.1016/j.fluid.2010.08.022)

Settings: 101.33 kPa, Liquid crystal of unknown type; for mass density: Vibrating tube method; for speed of sound: Sing-around technique in a fixed-path interferometer

CCCCCCCC/C=C\CCCCCCCC(=O)O.NCCO [2-hydroxyethylammonium oleate]
Settings	mass density [kg/m3]	speed of sound [m/s]
294.41 K	938.892	–
294.66 K	938.731	1522
294.91 K	938.572	1521.1
295.16 K	938.414	1520.2
295.41 K	938.256	1519.4
295.66 K	938.095	1518.5
295.91 K	937.936	1517.6
296.16 K	937.777	1516.8
296.41 K	937.618	1515.9
296.66 K	937.459	1515
296.91 K	937.301	1514.2
297.16 K	937.14	1513.3
297.41 K	936.981	1512.5
297.66 K	936.822	1511.6
297.91 K	936.662	1510.8
298.15 K	936.505	1509.9
298.41 K	936.345	1509
298.66 K	936.186	1508.2
298.91 K	936.026	1507.3
299.15 K	935.868	1506.5
299.41 K	935.709	1505.6
299.66 K	935.55	1504.8
299.91 K	935.39	1503.9
300.16 K	935.231	1503
300.41 K	935.072	1502.2
300.66 K	934.914	1501.3
300.9 K	934.755	1500.5
301.16 K	934.596	1499.7
301.41 K	934.436	1498.8
301.66 K	934.277	1498
301.91 K	934.118	1497.1
302.16 K	933.959	1496.3
302.41 K	933.802	1495.5
302.66 K	933.642	1494.6
302.91 K	933.483	1493.8
303.16 K	933.324	1492.9
303.4 K	933.167	1492.1
303.66 K	933.005	1491.3
303.91 K	932.846	1490.4
304.16 K	932.688	1489.6
304.41 K	932.529	1488.8
304.66 K	932.371	1488
304.91 K	932.212	1487.1
305.16 K	932.053	1486.3
305.41 K	931.892	1485.5
305.66 K	931.734	1484.7
305.9 K	931.576	1483.8
306.16 K	931.416	1483
306.4 K	931.258	1482.2
306.66 K	931.098	1481.4
306.91 K	930.939	1480.5
307.16 K	930.781	1479.7
307.41 K	930.622	1478.9
307.66 K	930.464	1478.1
307.91 K	930.304	1477.3
308.16 K	930.145	1476.4
308.41 K	929.987	1475.6
308.65 K	929.828	1474.8
308.91 K	929.668	1474
309.16 K	929.509	1473.2
309.4 K	929.35	1472.3
309.66 K	929.189	1471.5
309.91 K	929.032	1470.7
310.16 K	928.874	1469.9
310.41 K	928.713	1469
310.66 K	928.554	1468.2
310.91 K	–	1467.4
